The results in this text go back to patent US20220088195A1, “Prevention or mitigation of T-cell bispecific antibody-related adverse effects” (Hoffmann-La Roche Inc., priority 2020, published 2022).

SMILES strings stand for the structures. “Also recorded” adds a separate entry of the source.

For orientation: inhibition means the percentage by which the read-out fell short of the control.

Test [1] relates to A375 NucLight Red (NLR) target cells. The test is described as follows: Incucyte real time killing assay, PBMCs + RMF peptide-pulsed A375 NLR target cells + HLA-A2 WT1-TCB with escalating dasatinib. In kind it is cell-based, human. As to the method: FIG. 1. Real time killing of red fluorescent A375 cells loaded with RMF peptides by 10 nM HLA-A2 WT-1-TCB (A) and of red fluorescent MKN45 cells by 1 nM CEA-TCB (B) in the presence of different dasatinib concentrations ranging from 100 nM to 0 nM. (A) A375 NucLight Red (NLR) target cells were pulsed with RMF peptides (2 hours before killing assay) and co-cultured with HLA-A2 WT1-TCB, dasatinib (dasa) and PBMCs, effector to target ratio (E:T)=10:1 (E:T=50 000 PBMCs:5000 target cells). Killing was followed by Incucyte® (1 scan every 3 hours, zoom 10×, phase and red 400 ms acquisition time). % Killing was measured by normalizing total red area with values at t=0 hour and target cells+PBMCs+dasatinib (without TCB) control wells for each time point. Means of technical replicates+/−SEM for 1 donor. (B) MKN45 NLR target cells were co-cultured with CEA TCB, dasatinib and PBMCs, E:T=10:1 (E:T=50 000 PBMCs:5000 target cells). Killing was followed by Incucyte (1 scan every 3 hours, zoom 10×, phase and red 400 ms acquisition time). % Killing was measured by normalizing total red area with values at t=0 hour and target cells+PBMCs+dasatinib control wells for each time point. Means of technical replicates+/−SEM for 1 donor.
To assess the inhibitory effect of dasatinib on TCB-mediated target-cell killing, we conducted killing assays using peripheral blood mononuclear cells (PBMCs), NucLight Red (NLR) target-cells and respective TCB in media supplemented with escalating concentrations of dasatinib. The Incucyte® system (Essen Bioscience) was used to capture the loss of red fluorescent protein signal over time as a readout of target-cell killing.

For test [2], the system named is CD4+ and CD8+ T cells. Description: CD19-TCB-induced T cell activation (CD69, CD25) in the SUDLH-8 assay. To be noted: 100 nM dasatinib, 24 hrs; monohydrate. In kind it is cell-based, human. As to the method: FIG. 28. […] The expression of CD69 (A) and CD25 (B) on CD4+ T cells was measured by flow cytometry at 24 hrs in the assay described in FIG. 26. Mean of n=3 donors+SD. One way ANOVA, Friedman test, p-value: 0.1234 (ns), 0.0332 (*), 0.0021 (**), 0.0001 (***), <0.0001 (****).
FIG. 29. […] The expression of CD69 (A) and CD25 (B) on CD8+ T cells was measured by flow cytometry at 24 hrs in the assay described in FIG. 26. Mean of n=3 donors+SD. One way ANOVA, Friedman test, p-value: 0.1234 (ns), 0.0332 (*), 0.0021 (**), 0.0001 (***), <0.0001 (****).
The killing of CTV labelled SUDLH-8 cells was measured by flow cytometry using a Live/Dead Near Infra Red (NIR) dye. […] The expression of CD69 and CD25 were measured on CD4+ (FIG. 28) and CD8+(FIG. 29) T cells by flow cytometry as a readout for T cell activation. […] Lastly, the cytokine levels were analyzed in the supernatants of the assay by Luminex to evaluate the effect of dasatinib on CD19-TCB-induced cytokine release (FIGS. 30 and 31).

Test [3] relates to CD20+ B cells. The test is described as follows: CD19-TCB dependent B cell depletion in blood of humanized NSG mice. The format is in vivo. To be noted: 0.5 mg/kg CD19-TCB i.v. + 50 mg/kg dasatinib p.o. twice per day. How it is done:
FIG. 32. Timelines and dosing schedule of in vivo experiment assessing effect of dasatinib (50 mg/kg) on CD19-TCB induced cytokine release and B cell depletion in humanized NSG mice. Humanized NSG mice were co-treated with 0.5 mg/kg CD19-TCB (i.v.) and 50 mg/kg dasatinib (p.o.) twice per day. Blood was collected by tail vein bleeding at 1.5 hrs, 6 hrs and 48 hrs after treatment with CD19-TCB. At 72 hrs, blood was collected retro-orbitally, before the termination of the experiment. N=4 mice per group.
FIG. 33. […] Representative flow cytometry dot plots of CD20+ B cells gated among human CD45+ cells in the blood (48 hrs) of animals treated with vehicle (A), 0.5 mg/kg CD19-TCB (B), or 0.5 mg/kg CD19-TCB and 50 mg/kg dasatinib (C).
FIG. 34. […] CD20+ B cell count was measured by flow cytometry in the blood of the animals from the experiment described in FIG. 32 at 48 hrs (A) and 72 hrs (B). Mean of n=4 mice+/−SEM. One way ANOVA, Kruskal Wallis test, p-value: 0.1234 (ns), 0.0332 (*), 0.0021 (**), 0.0001 (***), <0.0001 (****).
To verify whether dasatinib can prevent CD19-TCB-induced B cell depletion and cytokine release in vivo, humanized NSG mice were either treated with 0.5 mg/kg CD19-TCB or co-treated with 0.5 mg/kg CD19-TCB and 50 mg/kg dasatinib as illustrated in FIG. 32. To best mimick the pharmacodynamic profile of dasatinib in the clinic and to verify whether the resulting exposure would be sufficient to prevent CD19-TCB-induced T cell cytotoxicity and cytokine release, dasatinib was given per os twice per day.
At 48 hrs and 72 hrs, mice were bled and the CD20+ B cell count was measured by flow cytometry (FIG. 33). […] The half-life of dasatinib in blood of mice being around 6 hrs, the exposure of dasatinib was probably not sufficient to durably prevent CD19-TCB-induced T cell cytotoxicity, leading to partial activity of CD19-TCB.

As for `Cc1nc(Nc2ncc(C(=O)Nc3c(C)cccc3Cl)s2)cc(N2CCN(CCO)CC2)n1` [dasatinib, N-(2-chloro-6-methylphenyl)-2-[[6-[4-(2-hydroxyethyl)-1-piperazinyl]-2-methyl-4-pyrimidinyl]amino]-5-thiazole carboxamide monohydrate], the inhibition at 0.0125 µM in test [1] (Homo sapiens, A-375, 12.5 nM dasatinib, 10 nM HLA-A2 WT-1-TCB, read-out: inhibition of target-cell killing) is 78.2%. Besides, the inhibition at 0.05 µM in test [1] (Homo sapiens, A-375, 50 nM (24.4 ng/mL) dasatinib, 10 nM HLA-A2 WT1-TCB, read-out: inhibition of target-cell killing) came out at 89%. Also, the inhibition at 0.1 µM in test [1] (Homo sapiens, A-375, 100 nM (48.8 ng/mL) dasatinib, 10 nM HLA-A2 WT1-TCB, read-out: inhibition of target-cell killing) amounted to 86.5%. In addition, the inhibition of killing entry in test [1] (dasatinib concentrations below 12.5 nM, 10 nM HLA-A2 WT-1-TCB) was “only partially inhibited killing”. Also, in test [2], the “CD19-TCB-induced CD4+ and CD8+ T cell activation (CD69, CD25)” value was “prevents CD19-TCB-induced CD4+ T cell activation; also recorded: prevents CD19-TCB-induced CD8+ T cell activation; also recorded: prevented CD4+ and CD8+ T cell activation”. Further, the “killing of CD20+ B cells by CD19-TCB (B cell count in blood)” value is on record as “prevents CD19-TCB dependent B cell depletion until 48 hrs post treatment” in test [3] (48 hrs, listed as Dasatinib, monohydrate); “prevented killing” in test [3] (48 hrs, monohydrate); “partially restored” in test [3] (72 hrs).
